Assay results: a melting point compilation (Tetko et al.; mined from patent text by program, amines drawn as free bases though some values may be those of a salt)

SMILES	melting point [°C]
O=C(c1ccccc1)c1c[nH]c2ncnc(Nc3cccc(CO)c3)c12	273 to 275
COc1ccc2cc(-n3cnnc3)cc(C)c2n1	157 to 159
COc1ccc(COc2cccc(C(=O)Nc3ccc(C#N)cc3)c2)cc1	147 to 148
CCN(CC)c1ccc(NC(=O)c2cnn(-c3ccc(F)cc3)c2C)cc1C#N	135 to 136
O=C(O)c1cn(-c2cc([N+](=O)[O-])c(F)c(F)c2F)c2nc(Cl)c(F)cc2c1=O	216 to 221
O=C(O)CNC1CCc2ccccc21 (centres undefined)	184 to 186
N#Cc1cnn(-c2ccccn2)c1SCc1ccccc1	110 to 115
O=C1NCCc2ccc(OCCCCN3CCN(c4cccc(Cl)c4Cl)CC3)cc2N1	185 to 186
O=C(Nc1cccnc1)NC(NC(=O)c1ccc(Cl)cc1)C(Cl)(Cl)Cl (centres undefined)	166 to 168
CCCC=Cc1c(C(C)C)nc(C(C)C)c(CO)c1-c1ccc(F)cc1F	59 to 62
NC(Oc1ccccc1)C(O)CCCNc1ccc(Br)cc1 (centres undefined)	106 to 110
CC(=O)OCC1Cc2cc(S(=O)(=O)N(C)C)c(Cl)c(Cl)c2O1 (centres undefined)	159 to 160
FC(F)(F)c1ccccc1-c1n[nH]c(-c2ccccc2C(F)(F)F)n1	190 to 192
COc1cccc(N(C)C(=O)Oc2ccc(C(F)(F)F)cc2)n1	85 to 86
CCN(CC)C(=O)Nc1c(C(=O)c2ccccc2)[nH]c2cc(Cl)ccc12	196 to 198
O=C(O)C(Cc1ccccc1)NC(=O)N1CCc2cc(S(=O)(=O)N3CCN(c4cccc(Cl)c4)CC3)ccc21 (centres undefined)	134 to 135
Cc1cc(Nc2nccc(N3CCC(C)CC3)n2)[nH]n1	193 to 195
CCN(CC)c1c(OC)cccc1C(=O)O	68 to 71
CON(C)C(=O)c1ccc(-c2cc(C(C)(C)C)c(O)c(C(C)(C)C)c2)cc1	176 to 177
CC(O)C(O)c1nc2c(C(F)(F)F)cccc2c(O)c1C(=O)Nc1nccs1 (centres undefined)	275
O=S(=O)(CC=C1CCC1)c1ccccc1	76 to 78
C#CCSC1NN=C(c2ccncc2)N1c1ccccc1 (centres undefined)	151 to 152
O=C(NNC(=O)c1occ(-c2ccccc2)c1-c1ccccc1)c1ccoc1	180 to 183
O=C(O)c1ccc(SC(C(=O)O)c2cccc(C(F)(F)F)c2)cn1 (centres undefined)	190 to 195
Cc1ccc(C)n1-c1cc(F)c(C2(O)CCSCC2)c(F)c1	125 to 126

SMILES	melting point [°C]
COc1cc(C=O)ccc1OCC(O)CN1CCC(c2noc3cc(F)ccc23)CC1 (centres undefined)	107 to 108
CC1C=CCCC1C(O)C(N)=O (centres undefined)	149 to 151
COc1ccc([N+](=O)[O-])cc1NC(C)=O	172 to 177
CCCc1nc(C(=O)O)c(C(=O)O)[nH]1	261 to 263
C=CCN(c1ccccc1CC(=O)N(C)C)c1c(Cl)cccc1Cl	110 to 114
COc1cc(Nc2c(C#N)cnc3c(/C=C/CCN4CCOCC4)cccc23)c(Cl)cc1Cl	176 to 179
CCOC(=O)C=Cc1cc(OC)ccc1-c1ccc(-c2ccc(OC)c(Cl)c2)c(C=O)c1	150 to 152
O=C(O)c1ccc(C(Cc2ccc(F)cc2)C(=O)Nc2nc3ccccc3o2)cc1 (centres undefined)	199 to 201
CCCOc1ccc(-c2ccc3c(c2)C=C(C(=O)O)CCN3C=O)cc1	215 to 217
CC(C)(C)OC(=O)NN1CCC(C(=O)O)CC1	133 to 135
CCOC(Cc1ccc(OCc2nc(C(C)(C)C)oc2C)c(C)c1)C(=O)O (centres undefined)	95 to 97
CCCNC(=O)Nc1nc(-c2cc(C)cc(C)c2)c(-c2ccncc2)s1	128 to 130
CCCCc1cn(C)cc(-c2cccc(C(F)(F)F)c2)c1=O	82.5 to 84
Cc1cc([N+](=O)[O-])c(O)cc1Cl	70 to 71
O=c1[nH]c2c(Cl)ncnc2n1CCN1CCC(Nc2nc3ccccc3n2Cc2ccc(F)cc2)CC1	266
CC(Cc1ccc(F)cc1)(NC(=O)CNC(=O)CN)c1ccc(F)cc1 (centres undefined)	139 to 140
CN1CC(=O)Nc2ccc(-c3cccc([N+](=O)[O-])c3)cc21	237 to 243
Cc1ccc2c(Cl)cc(S(=O)(=O)NCc3ccc(Cl)cc3)c(O)c2n1	158 to 161
Cc1nc2c(c(=O)[nH]1)CC(C)C2 (centres undefined)	174 to 175
CCn1ncc2c3noc(-c4ccc(F)cc4)c3cnc21	222 to 223
CN(C)CCNC(=O)NCc1ccc2c(c1)-c1[nH]nc(-c3ccsc3)c1C2	247 to 249
Cc1nc(C(O)(Cn2cncn2)c2ccc(Cl)cc2)sc1C (centres undefined)	174
O=C1NC(=S)CCC1N1C(=O)c2ccccc2C1=O (centres undefined)	225 to 226
Cc1cc2c(cc1Cl)CCN2C(=O)Nc1cccnc1	217 to 218
CCCCc1c(C=O)cc(OC)c2ccccc12	51 to 52

SMILES	melting point [°C]
COCOc1c2c(cc3ccccc13)N(C(=O)OC(C)(C)C)CC2CCl (centres undefined)	99 to 101
CC(C)(C)C(O)c1ccc(C(=O)c2ccccc2)cc1 (centres undefined)	103 to 105
Cn1ncc2[nH]c3ccc(Cc4ccccc4)cc3c(=O)c21	282
Nc1nc(N)c2ncn(C3COC(CO)O3)c2n1 (single isomer, unassigned; (-))	237 to 239
CN1C(=O)C(Cc2ccccc2)(c2ccccc2O)c2ccccc21 (centres undefined)	188 to 190
COC(=O)c1nc(-c2ccc(Cl)cc2)c(F)c(N)c1OC	93 to 94
CCOCn1c(C(=O)c2cc(C)cc(C)c2)c(CC)c(=O)[nH]c1=O	184
CCOC(=O)C1=C(N(C)C)N=C(C)C(C(=O)OCC)C1c1ccccc1C (centres undefined)	88
CCCCCCCCCCCCCCC1COC2(CC(c3ccccc3)NC(c3ccccc3)C2)O1 (centres undefined)	63 to 70
ClC1=NC(Cl)(c2ccc(Cl)cc2)NC=N1 (centres undefined)	142 to 143
O=C1CC=C(c2ccc(Cl)cc2)CC1	59 to 62
COc1ccc([N+](=O)[O-])c(C=O)c1	89 to 90
Cc1c(CCN(C)C(=O)OC(C)(C)C)c2cc(S(=O)(=O)c3ccccc3)ccc2n1C	147 to 149
O=S1(=O)CCN(c2ccc(O)cc2)CC1	153 to 155
CCc1ccc(C#CC(C)N(O)C(N)=O)cc1 (centres undefined)	142 to 144
CCOC(=O)c1c(C)cc2nc(CSC(C)=O)n(-c3ccccc3Cl)c(=O)c2c1C	103 to 105
CC(C)(C)OC(=O)[C@H](CC1CC1)N1C(=O)NC(C(F)(F)F)(C(F)(F)F)C1=O	76 to 77
O=C(NCCc1ccccn1)c1ccc(S(=O)(=O)Nc2cccc3c(Cl)c[nH]c23)cc1	220 to 222
CCC1Cc2c(N3CCOCC3)c(F)cc3c(=O)c(C(=O)O)cn1c23 (centres undefined)	275 to 278
O=C(C=Cc1ccc(O)cc1)C=Cc1ccc(O)cc1	236
O=[N+]([O-])c1cc(-c2ccco2)ccc1Nc1cccc(-n2ccnc2)c1	147 to 149
CCCC(c1ccc(C(N)=O)cc1)n1ccnc1 (centres undefined)	132
C[C@@H]1CCC[C@H](C)N1CCCNC(=O)CN1C(=O)CCC1(C)C	86 to 87
CCCc1nn(C)c2c(-c3ccc(SC)cc3)nc(-c3ccc(F)cc3)nc12	114 to 116
